# Source: patent US20150374779A1, “PHARMACOLOGIC TREATMENTS OF MENIÉRE'S DISEASE” (priority 2014, published 2015)
# Where no end group is shown, it is not given here. [ ]: non-standard residue; d: D form.
# Key:
# KOS strain of HSV-1 [1] = assay: single cycle herpes simplex virus infection assay (virus yield), ATRA-differentiated SH-SY5Y human neuroblastoma cells; format: cell-based; conditions: for activity at 40 µM: Human alphaherpesvirus 1, Neuroblastoma cell; for virus yield, % of control: DMSO = 100
# Method: (§1) A single cycle herpes simplex virus infection assay was performed to determine the effect of JNK inhibitors on virus yield.
# (§2) To prepare a 1 mM stock solution, 5.15 mg of D-JNKI-1 acetate was suspended in 1 ml of water, vortexed for 2 minutes, and sterilized by passage through a PES filter; 50 μL aliquots were prepared and stored at −20° C.
# (§3) Human neuroblastoma cells (SH-SY5Y) were maintained in DMEM plus 10% fetal calf serum, 1 mM HEPES (Gibco) and 2 μg/ml gentamicin (Gibco). For differentiation, monolayers of cells were rinsed in PBS and then maintained in Neurobasal medium (Gibco) plus 2% B27 supplement and […] all-trans retinoic acid (ATRA). Primary fetal rat cortex cells were maintained in Neurobasal medium plus 2% B27, 2 mM glutamine and […] gentamicin.
# (§4) Monolayers of SH-SY5Y human neuroblastoma cells differentiated by treatment with ATRA, or fetal rat cortex neurons were pre-treated with 10-20 μM D-JNKI-1, 40 μM SP600125 (Calbiochem), or DMSO (D2650, Sigma-Aldrich) vehicle control for 30 minutes prior to infection. Monolayers were infected with the KOS strain of HSV-1 at a multiplicity of infection (MOI) of 5 for 60 minutes under conditions of pre-treatment. Following the inoculation period, monolayers were incubated under pre-treatment conditions and harvested at 20 hours postinfection.
# (§5) Cells and media were collected, and subjected to three rounds of freezing and thawing. Serial ten-fold dilutions were prepared and aliquots seeded in triplicate onto monolayers of Vero cells. Following a 60-minutes infection period, the inoculum was removed and replaced with medium containing 0.3% methyl cellulose. After 3 days, the overlay was removed and the cell monolayer stained with 0.8% crystal violet in 50% ethanol and plaques counted to determine virus yield. Results were presented as % of yield relative to control conditions (DMSO vehicle treatment).
# KOS strain of HSV-1 [2] = assay: single cycle herpes simplex virus infection assay (virus yield), fetal rat cortex neurons; format: cell-based; conditions: for Pfu/culture: MOI 5, harvest 20 h postinfection, DMSO 1.33 × 10^6
# Method: as §1, §2, §3, §4, §5
# [3] = test system: models of cochlear insult; conditions: acute noise trauma, acute labyrinthitis, aminoglycoside ototoxicity, bacterial infection, cochlear ischemia, cochlear implantation trauma; cited from earlier work
# ASNHL-related tinnitus = assay: double-blind, randomized, placebo-controlled phase II study of AM-111 in ASNHL and associated tinnitus; format: in vivo, human; conditions: for Complete ASNHL-Related Tinnitus Remission in the Treated Ear, Frequency (%): mITT; for Number of Subjects with Tinnitus/Number of Subjects with Observation (%): Day 90, placebo 28/50 (56.0)
# Method: A double-blind, randomized, placebo-controlled phase II study was conducted to evaluate the efficacy and safety of AM-111 in treating ASNHL and associated tinnitus. Eligible participants were aged 18 to 60 years and suffered from ASNHL (unilateral idiopathic sudden sensorineural hearing loss (ISSNHL), uni- or bilateral acute acoustic trauma (AAT)) with hearing loss of at least 30 dB and onset not more than 48 hours previously. The hearing loss was determined against a reference value: mean hearing threshold at the 3 most affected contiguous test frequencies (pure tone average, PTA) less corresponding mean hearing threshold of the contralateral ear (Plontke et al., 2007). In case of previously asymmetric hearing or bilateral ASNHL, thresholds from a previous audiogram or ISO-7029; 2000 norm values served as reference. The PTA frequencies determined at baseline remained fixed for all evaluations.
# Exclusion criteria included history of Meniére's disease, autoimmune or radiation induced hearing […] loss, endolymphatic hydrops or fluctuating hearing loss, suspected perilymph fistula, membrane rupture or retrocochlear lesion, barotrauma, air-bone gap >20 dB in 3 contiguous frequencies, previous ASNHL incident within the past 6 weeks, and acute or chronic otitis media or otitis externa. Women who were breast feeding, pregnant or who planned a pregnancy during the study, or women of childbearing potential who declared being unwilling or unable to practice an effective method of […] contraception were excluded. Written informed consent was obtained from each patient prior to the performance of any study-specific procedures.
# At baseline (Day 0), study participants were randomized to receive AM-111 (0.4 or 2.0 mg/mL) or placebo at a 2:1 ratio. The study consisted of a baseline assessment and 4 follow-up visits on Days 3, 7, 30, and 90. Baseline assessments included a general physical examination, vital signs, and a urine pregnancy test for women of childbearing age. At each study visit pure tone hearing thresholds, speech discrimination at 60 and 80 dB, and subjective tinnitus loudness were determined. Those patients reporting tinnitus were asked to rate its loudness “right now” on a numerical scale ranging from 0 (no tinnitus) to 10 (extremely loud).
# Approximately 0.25 mL of the study drug was administered on Day 0 by intratympanic (i.t.) injection under local anesthesia through a small myringotomy with the patient's head placed in a position tilted 45° towards the unaffected ear. Patients remained in their reclined or supine position for approximately 30 minutes to allow for diffusion of the active substance into the cochlea. In case of bilateral AAT, only the worst affected ear was treated. Subjects whose PTA recovered <10 dB from baseline to Day 7 were given the option to receive oral prednisolone 50 mg (Ratiopharm, Ulm, Germany) b.i.d. for 5 days.
# The sample size was determined based on an expected effect size of 0.6, a two-sided type I error rate of 5% and a statistical power of 80%.
# Efficacy analyses were primarily performed on a modified “Intention to treat” (mITT) analysis set (treated patients with PTA measured on Day 3±1 or Day 7+4 days at most) and secondarily on the “Per Protocol” (PP) analysis set. The “Safety Population” analysis set included all patients who received an injection of the study medication. Random imputation was performed for missing PTA values at Days 7 and 30, and missing speech discrimination score (SDS) values at Day 7 based on the preceding value and the mean change observed in the respective treatment group (mITT set).
# For continuous efficacy endpoints, analysis of covariance (ANCOVA) models were used including treatment group and initial frequency range as class effects, and baseline values of the respective endpoint as covariate. For the complete recovery rate, a logistic regression model was applied including treatment, initial frequency range, and baseline hearing loss as predictor variables. […]
# reovirus T3D = conditions: cited from earlier work
# wild type HSV-1 (KOS) = assay: Western blot assay of accumulation of HSV-1 viral proteins (IE, E, L classes) in SH-SY5Y cells and rat fetal cortex neurons; format: cell-based; conditions: 10 μM; both SH-SY5Y cells and fetal cortex neurons; 8 h post infection
# Method: Cell monolayers were pretreated either with DMSO (DM, vehicle control), or the JNK inhibitors D-JNKI-1 (AM, 10 μM) or SP600125 (SP, 40 μM), then infected in the presence of drug for 60 minutes and finally in the presence of drug until the time of harvest, 8 hours post infection. Western blot for tubulin served as a loading control.
# The ability of JNK inhibitors to affect accumulation of viral proteins representative of the immediate-early (IE), early (E) or late (L) kinetic classes was evaluated by a Western blot assay.
# Unless indicated otherwise, the same materials and methods were applied as for the experiment described under Example 1 and as laid out by Hargett et al., 2005.
# Replicate monolayers of rat fetal cortex neurons or ATRA-differentiated SH-SY5Y cells were pre-treated with DMSO, D-JNKI-1 (10 μM) or […] (40 μM) for 30 minutes, and then infected with wild type HSV-1 (KOS) or ICP27 null mutant d27 at a multiplicity of infection (MOI) of 5, or mock-infected under pre-treatment conditions for 60 minutes. The inoculum was removed and incubation continued under the pretreatment conditions until the time of harvest. Whole cell lysates were prepared at 8 h post infection. Aliquots of lysates were separated on 12% gels by standard polyacrylamide gel electrophoresis (SDS-PAGE) procedures. […]
compound,measurement,setting,value
"Oc1c2ccccc2c2c3c(cccc13)N=N2 [SP600125, reference compound]",Pfu/culture,"KOS strain of HSV-1 [1]; First experiment, 40 μM, MOI 5, harvest 20 h postinfection, DMSO 3.5 × 10^5",2.57 × 10^5 Pfu/culture
same,activity at 40 µM,"KOS strain of HSV-1 [1]; read-out: virus yield, % of control, First experiment, 40 μM, DMSO = 100",72%
same,activity at 40 µM,"KOS strain of HSV-1 [1]; read-out: virus yield, % of control, Second experiment, 40 μM, DMSO = 100",20%
same,Pfu/culture,"KOS strain of HSV-1 [1]; Second experiment, 40 μM, DMSO 8.5 × 10^5",1.76 × 10^5 Pfu/culture
same,Pfu/culture,"KOS strain of HSV-1 [2]; 40 μM, fetal rat neurons",8.0 × 10^5 Pfu/culture
same,activity at 40 µM,"KOS strain of HSV-1 [2]; Human alphaherpesvirus 1, Neuron, 40 μM, fetal rat neurons, DMSO = 100, read-out: virus yield, % of control",60%
"DQSRPVQPFLNLTTPRKPRPPRRRQRRKKRG (SEQ ID NO: 2) ([dD][dQ][dS][dR][dP][dV][dQ][dP][dF][dL][dN][dL][dT][dT][dP][dR][dK][dP][dR][dP][dP][dR][dR][dR][dQ][dR][dR][dK][dK][dR]G) [AM-111, 31-amino acid cell-permeable peptide, formulated in a biocompatible hyaluronic acid gel]",otoprotection,[3],otoprotective
same,"Complete ASNHL-Related Tinnitus Remission in the Treated Ear, Frequency (%)","ASNHL-related tinnitus; All Subjects, 0.4 mg/mL, N = 50, Time point: Overall (90 days), placebo 28 (54.9%), p 0.151",35 (70.0%)
same,"Complete ASNHL-Related Tinnitus Remission in the Treated Ear, Frequency (%)","ASNHL-related tinnitus; All Subjects, 2.0 mg/mL, N = 56, Overall, placebo 28 (54.9%), p 1.000",31 (55.4%)
same,Number of Subjects with Tinnitus/Number of Subjects with Observation (%),ASNHL-related tinnitus; 0.4 mg/mL i.t.,38.0%
same,Number of Subjects with Tinnitus/Number of Subjects with Observation (%),ASNHL-related tinnitus; 2.0 mg/mL i.t.,51.9%
same,"Complete ASNHL-Related Tinnitus Remission in the Treated Ear, Frequency (%)","ASNHL-related tinnitus; Mild to Moderate Subgroup, 0.4 mg/mL, N = 25, Overall, placebo 22 (78.6%), p 0.732",21 (84.0%)
same,"Complete ASNHL-Related Tinnitus Remission in the Treated Ear, Frequency (%)","ASNHL-related tinnitus; Mild to Moderate Subgroup, 2.0 mg/mL, N = 27, Overall, placebo 22 (78.6%), p 0.245",17 (63.0%)
same,"complete tinnitus remission, difference between AM-111 treatment groups and placebo","ASNHL-related tinnitus; subgroup mild to moderate hearing loss, 0.4 and 2.0 mg/mL",no statistically significant differences
DQSRPVQPFLNLTTPRKPRPPRRRQRRKKRG (SEQ ID NO: 2) (not fully specified (some residues); also: D-amino acids (positions not given here)) [D-JNKI-1],virus yield (in words),KOS strain of HSV-1 [1],substantially reduced
same,"virus yield, % of control","KOS strain of HSV-1 [1]; First experiment, 10 μM",37%
same,Pfu/culture,"KOS strain of HSV-1 [1]; First experiment, 10 μM, MOI 5, harvest 20 h postinfection, DMSO 3.5 × 10^5",1.27 × 10^5 Pfu/culture
same,Pfu/culture,"KOS strain of HSV-1 [1]; Second experiment, 10 μM, DMSO 8.5 × 10^5",2.23 × 10^5 Pfu/culture
same,"virus yield, % of control","KOS strain of HSV-1 [1]; Second experiment, 10 μM",26%
same,Pfu/culture,"KOS strain of HSV-1 [1]; Second experiment, 20 μM, DMSO 8.5 × 10^5",2.06 × 10^5 Pfu/culture
same,"virus yield, % of control","KOS strain of HSV-1 [1]; Second experiment, 20 μM",24%
same,survival of intracerebrally infected mice,reovirus T3D; otherwise lethal challenge with T3D (100×50% lethal dose),significantly prolonged survival
same,CNS injury,reovirus T3D; reovirus-infected mice,reduced CNS injury
same,c-Jun activation,reovirus T3D; reovirus-infected mice,reduced c-Jun activation
same,neuronal apoptosis,reovirus T3D; reovirus-infected mice,reduced neuronal apoptosis
same,viral titer or viral antigen distribution,reovirus T3D; reovirus-infected mice,without altering
same,"virus yield, % of control","KOS strain of HSV-1 [2]; 10 μM, fetal rat neurons, DMSO = 100",12%
same,Pfu/culture,"KOS strain of HSV-1 [2]; 10 μM, fetal rat neurons",1.67 × 10^5 Pfu/culture
same,virus yield (in words),KOS strain of HSV-1 [2]; rat cortex neurons,substantially reduced
same,L (gC and Us11) protein accumulation,wild type HSV-1 (KOS),severe reduction
same,accumulation of IE (ICP27) and E (ICP8) proteins,wild type HSV-1 (KOS),moderate reductions
